Experimental data: ChEMBL document CHEMBL4270621, “Discovery of long-chain salicylketoxime derivatives as monoacylglycerol lipase (MAGL) inhibitors” (Eur J Med Chem, 2018)
The source made the active and inactive calls. The rule behind the calls is not given here.

What was measured:
Monoglyceride lipase [1] = biological target: T1, Monoglyceride lipase (Homo sapiens, UniProt Q99685); test: Inhibition of recombinant human C-terminal His-tagged MAGL expressed in Escherichia coli using 4-NPA as substrate measured after 30 mins
T1 sequence (Q99685 whole entry): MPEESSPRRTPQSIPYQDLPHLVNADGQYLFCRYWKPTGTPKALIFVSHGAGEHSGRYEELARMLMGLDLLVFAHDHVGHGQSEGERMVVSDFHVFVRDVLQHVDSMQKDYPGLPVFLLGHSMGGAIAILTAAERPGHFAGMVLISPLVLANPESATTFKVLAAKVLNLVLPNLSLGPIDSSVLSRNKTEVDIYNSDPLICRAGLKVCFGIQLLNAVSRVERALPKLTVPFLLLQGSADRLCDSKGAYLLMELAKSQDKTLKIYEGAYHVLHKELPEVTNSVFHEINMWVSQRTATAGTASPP

Monoglyceride lipase [2] = biological target: T1, Monoglyceride lipase; test: Inhibition of recombinant human C-terminal His-tagged MAGL expressed in Escherichia coli using 4-NPA as substrate pretreated with substrate 15 mins followed by enzyme addition measured after 30 mins
HCT-116 = test: Antiproliferative activity against human HCT116 cells measured after 96 hrs; format: functional, cell-based; conditions: HCT-116, 96 h
SK-OV-3 = test: Antiproliferative activity against human SKOV3 cells measured after 96 hrs; format: functional, cell-based; conditions: SK-OV-3, 96 h
[3] = biological target: T2, Monoglyceride lipase (Homo sapiens) (UniProt Q99685); test: Reversible inhibition of recombinant human C-terminal His-tagged MAGL expressed in Escherichia coli using 4-NPA as substrate pretreated up to 60 mins followed by substrate addition and measured after 30 mins
T2 sequence (whole entry): T1 sequence (Q99685 whole entry)

[4] = biological target: T2, Monoglyceride lipase (Homo sapiens); test: Reversible inhibition of recombinant human C-terminal His-tagged MAGL expressed in Escherichia coli at 20 uM using 4-NPA as substrate pretreated for 60 mins followed by 40 times compound dilution for 15 mins and subsequent substrate addition measured after 30 mins
OVCAR-3 = test: Antiproliferative activity against human OVCAR3 cells measured after 96 hrs; format: functional, cell-based; conditions: OVCAR-3, 96 h
MDA-MB-231 = test: Antiproliferative activity against human MDA-MB-231 cells measured after 96 hrs; format: functional, cell-based; conditions: MDA-MB-231, 96 h
[5] = biological target: T3, Fatty-acid amide hydrolase 1 (Homo sapiens, UniProt O00519); test: Inhibition of FAAH in human U937 cells using [ethanolamine-1-3H]AEA as substrate pretreated for 30 mins followed by substrate addition and measured after 15 mins by liquid scintillation counting method; format: cell-based
T3 sequence (O00519 whole entry): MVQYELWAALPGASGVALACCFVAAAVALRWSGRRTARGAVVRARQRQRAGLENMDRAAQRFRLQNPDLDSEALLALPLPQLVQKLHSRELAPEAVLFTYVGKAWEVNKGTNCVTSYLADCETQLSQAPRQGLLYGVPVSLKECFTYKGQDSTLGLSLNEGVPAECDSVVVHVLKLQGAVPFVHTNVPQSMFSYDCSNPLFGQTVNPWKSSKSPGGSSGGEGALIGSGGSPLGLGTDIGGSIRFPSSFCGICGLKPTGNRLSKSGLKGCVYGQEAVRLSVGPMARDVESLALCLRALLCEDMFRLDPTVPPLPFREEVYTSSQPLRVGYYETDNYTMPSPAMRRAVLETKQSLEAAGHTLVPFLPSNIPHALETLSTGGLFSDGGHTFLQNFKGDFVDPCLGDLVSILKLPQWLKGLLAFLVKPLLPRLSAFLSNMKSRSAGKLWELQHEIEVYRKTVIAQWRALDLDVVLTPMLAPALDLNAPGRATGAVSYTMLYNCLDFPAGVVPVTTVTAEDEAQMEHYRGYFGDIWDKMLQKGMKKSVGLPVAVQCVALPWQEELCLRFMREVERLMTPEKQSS

Cannabinoid receptor 1 [6] = biological target: T4, Cannabinoid receptor 1 (Homo sapiens, UniProt P21554); test: Displacement of [3H]CP55940 from recombinant human CB1 expressed crude membranes after 90 mins by liquid scintillation counting method
Caov-3 cell line = test: Antiproliferative activity against human Caov3 cells measured after 96 hrs; format: functional, cell-based; conditions: Caov-3, 96 h
Monoglyceride lipase [7] = biological target: T1, Monoglyceride lipase; test: Inhibition of recombinant human C-terminal His-tagged MAGL expressed in Escherichia coli using 4-NPA as substrate pretreated with substrate 15 mins in presence of DTT followed by enzyme addition measured after 30 mins
Cannabinoid receptor 1 [8] = biological target: T4, Cannabinoid receptor 1; test: Displacement of [3H]CP55940 from recombinant human CB1 expressed in crude membranes at 10 uM after 90 mins by liquid scintillation counting method relative to control; format: cell membranes
[9] = biological target: Estrogen receptor beta (Homo sapiens) (UniProt Q92731); test: Displacement of [3H]-estradiol from full length human ERbeta expressed in insect cells after 18 to 24 hrs by radiometric method relative to estradiol
[10] = biological target: T5, Estrogen receptor (Homo sapiens) (UniProt P03372); test: Displacement of [3H]-estradiol from full length human untagged ERalpha expressed in Sf insect cells after 18 to 24 hrs by radiometric method relative to estradiol
T5 sequence (whole entry): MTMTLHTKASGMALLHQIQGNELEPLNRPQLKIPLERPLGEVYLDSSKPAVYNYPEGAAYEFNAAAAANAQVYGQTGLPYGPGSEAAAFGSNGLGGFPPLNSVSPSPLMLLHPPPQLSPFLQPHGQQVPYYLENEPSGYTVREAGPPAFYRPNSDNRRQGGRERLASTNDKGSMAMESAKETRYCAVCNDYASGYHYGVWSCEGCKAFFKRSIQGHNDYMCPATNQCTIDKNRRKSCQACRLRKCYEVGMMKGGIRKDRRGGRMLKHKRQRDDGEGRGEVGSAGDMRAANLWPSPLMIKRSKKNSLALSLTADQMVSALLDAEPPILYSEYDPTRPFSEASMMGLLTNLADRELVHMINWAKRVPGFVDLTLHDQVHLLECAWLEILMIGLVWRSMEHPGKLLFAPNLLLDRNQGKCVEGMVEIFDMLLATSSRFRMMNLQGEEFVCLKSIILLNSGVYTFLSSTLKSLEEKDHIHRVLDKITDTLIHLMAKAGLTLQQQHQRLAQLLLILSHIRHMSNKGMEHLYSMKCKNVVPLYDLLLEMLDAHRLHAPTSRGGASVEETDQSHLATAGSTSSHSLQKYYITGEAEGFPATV

T4 sequence (P21554 whole entry): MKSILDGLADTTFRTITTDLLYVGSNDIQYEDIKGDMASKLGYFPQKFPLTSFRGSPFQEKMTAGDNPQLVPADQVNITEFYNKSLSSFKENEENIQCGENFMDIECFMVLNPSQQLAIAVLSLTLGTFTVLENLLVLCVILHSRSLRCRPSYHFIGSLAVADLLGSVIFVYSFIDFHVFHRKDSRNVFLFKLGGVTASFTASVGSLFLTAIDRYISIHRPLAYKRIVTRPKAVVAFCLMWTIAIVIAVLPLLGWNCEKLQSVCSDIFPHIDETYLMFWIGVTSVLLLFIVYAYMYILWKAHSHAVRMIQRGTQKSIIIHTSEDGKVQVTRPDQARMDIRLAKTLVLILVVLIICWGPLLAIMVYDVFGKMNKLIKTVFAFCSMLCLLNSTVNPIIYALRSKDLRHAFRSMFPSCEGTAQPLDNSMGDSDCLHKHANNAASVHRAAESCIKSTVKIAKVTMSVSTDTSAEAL
Sequence of Estrogen receptor beta (Homo sapiens) (Q92731 whole entry): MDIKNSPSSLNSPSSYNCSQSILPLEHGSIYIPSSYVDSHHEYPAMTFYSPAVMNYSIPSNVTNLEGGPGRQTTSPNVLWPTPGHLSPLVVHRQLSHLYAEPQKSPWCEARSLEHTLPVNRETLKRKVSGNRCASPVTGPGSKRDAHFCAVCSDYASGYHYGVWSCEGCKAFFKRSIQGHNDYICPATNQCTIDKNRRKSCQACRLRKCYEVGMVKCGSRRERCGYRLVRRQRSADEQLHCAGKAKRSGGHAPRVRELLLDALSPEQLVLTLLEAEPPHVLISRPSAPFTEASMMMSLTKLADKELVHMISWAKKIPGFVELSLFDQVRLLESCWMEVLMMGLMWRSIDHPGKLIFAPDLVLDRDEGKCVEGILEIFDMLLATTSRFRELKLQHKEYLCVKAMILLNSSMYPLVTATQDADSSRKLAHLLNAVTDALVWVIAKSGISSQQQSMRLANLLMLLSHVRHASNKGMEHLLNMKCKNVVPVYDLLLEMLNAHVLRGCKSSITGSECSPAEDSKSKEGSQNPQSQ

IC50 (Monoglyceride lipase [1]) [µM]	IC50 (HCT-116) [µM]	IC50 (SK-OV-3) [µM]	IC50 (OVCAR-3) [µM]	IC50 (MDA-MB-231) [µM]	SMILES	IC50 (Caov-3 cell line) [µM]	also measured
> 200	–	–	–	–	CCCCCCCCCCCCC/C(=N\O)c1cc(-c2ccc(OC)c(F)c2)ccc1O	–	–
–	89	34	50	42	COc1nn(-c2ccc(NC(=O)OCc3ccccc3)c(C)c2)c(=O)o1	92	–
0.71	7.6	20	40	45	CCCCCCCCCCC/C(=N\O)c1cc(-c2ccc(O)c(F)c2)ccc1O	11	IC50 [5]: 4.1 µM; IC50 (Cannabinoid receptor 1 [6]): 2.6 µM; inhibition (Cannabinoid receptor 1 [8]): 5%
> 200	–	–	–	–	CCCCCCCCCCCCCCC/C(=N\O)c1cc(-c2ccc(OC)c(F)c2)ccc1O	–	–
34	–	–	–	–	C/C(=N\O)c1cc(-c2ccc(O)c(F)c2)ccc1O	–	–

Continued, compound first:

SMILES	IC50 (Monoglyceride lipase [1]) [µM]	IC50 (HCT-116) [µM]	IC50 (SK-OV-3) [µM]	IC50 (OVCAR-3) [µM]	IC50 (MDA-MB-231) [µM]	IC50 (Caov-3 cell line) [µM]	also measured
CCCCCCCCCCCCC/C(=N\O)c1cc(-c2ccc(O)c(F)c2)ccc1O	0.68	11	26	28	73	14	IC50 (Monoglyceride lipase [2]): 0.68 µM; inhibition [3]: Active; inhibition [4]: Active; IC50 [5]: 8.7 µM; IC50 (Cannabinoid receptor 1 [6]): 4.1 µM; IC50 (Monoglyceride lipase [7]): 0.7 µM; inhibition (Cannabinoid receptor 1 [8]): 5%
CCCC/C(=N\O)c1cc(-c2ccc(OC)cc2)ccc1O	119	–	–	–	–	–	–
CC/C(=N\O)c1cc(-c2ccc(O)c(F)c2)ccc1O	11	–	–	–	–	–	RBA [9]: 37%; RBA [10]: 2.1%
